Source: PubChem BioAssay (NCI)
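GI50: concentration for 50% inhibition of growth. TGI: total growth inhibition.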

Columns and labels:
Assay in all cases: NCI tumour cell line growth inhibition, 384-well format
COLO 205 colon = test system: COLO 205 colon
NCI-H322M lung = test system: NCI-H322M lung
SF-295 CNS = test system: SF-295 CNS
DU-145 prostate = test system: DU-145 prostate
NCI-H460 NSCLC = test system: NCI-H460 NSCLC
NCI-H226 lung = test system: NCI-H226 lung
OVCAR-5 ovarian = test system: OVCAR-5 ovarian
IGROV1 ovarian = test system: IGROV1 ovarian
SR leukemia = test system: SR leukemia
NCI-H522 lung = test system: NCI-H522 lung
UO-31 renal = test system: UO-31 renal
HCT-116 colon = test system: HCT-116 colon
PC-3 prostate = test system: PC-3 prostate
HL-60(TB) leukemia = test system: HL-60(TB) leukemia
NCI-H23 lung = test system: NCI-H23 lung
TK-10 renal = test system: TK-10 renal
NCI/ADR-RES ovarian = test system: NCI/ADR-RES ovarian
SF-539 CNS = test system: SF-539 CNS
MDA-MB-468 breast = test system: MDA-MB-468 breast
MOLT-4 leukemia = test system: MOLT-4 leukemia
SK-MEL-5 melanoma = test system: SK-MEL-5 melanoma
SNB-19 CNS = test system: SNB-19 CNS
OVCAR-8 ovarian = test system: OVCAR-8 ovarian
HOP-62 NSCLC = test system: HOP-62 NSCLC
SN12C renal = test system: SN12C renal
CCRF-CEM leukemia = test system: CCRF-CEM leukemia
RPMI-8226 leukemia = test system: RPMI-8226 leukemia
KM12 colon = test system: KM12 colon
ACHN renal = test system: ACHN renal
MDA-MB-231 breast = test system: MDA-MB-231 breast
MCF7 breast = test system: MCF7 breast
MDA-MB-435 melanoma = test system: MDA-MB-435 melanoma
EKVX NSCLC = test system: EKVX NSCLC
U251 glioblastoma = test system: U251 glioblastoma
SF-268 CNS = test system: SF-268 CNS
UACC-257 melanoma = test system: UACC-257 melanoma
786-0 renal = test system: 786-0 renal
CAKI-1 renal = test system: CAKI-1 renal
BT-549 breast = test system: BT-549 breast
HCC-2998 colon = test system: HCC-2998 colon
RXF 393 renal = test system: RXF 393 renal
A498 renal = test system: A498 renal
M14 melanoma = test system: M14 melanoma
HS 578T breast = test system: HS 578T breast
LOX IMVI melanoma = test system: LOX IMVI melanoma
OVCAR-4 ovarian = test system: OVCAR-4 ovarian
SK-OV-3 ovarian = test system: SK-OV-3 ovarian
HOP-92 NSCLC = test system: HOP-92 NSCLC
K-562 leukemia = test system: K-562 leukemia
OVCAR-3 ovarian = test system: OVCAR-3 ovarian
HCT-15 colon = test system: HCT-15 colon
SW-620 colon = test system: SW-620 colon
SK-MEL-28 melanoma = test system: SK-MEL-28 melanoma
HT29 colon = test system: HT29 colon
A549 NSCLC = test system: A549 NSCLC

O=C(Cc1ccc(-c2ccc(OCCN3CCOCC3)cc2)cn1)NCc1ccccc1
GI50 (COLO 205 colon): 16.3 nM | TGI (COLO 205 colon): 34.5 nM | GI50 (NCI-H322M lung): 38.1 nM | TGI (NCI-H322M lung): 71600 nM | GI50 (SF-295 CNS): 15.7 nM | TGI (SF-295 CNS): 38 nM | GI50 (DU-145 prostate): 30.2 nM | TGI (DU-145 prostate): 174 nM | GI50 (NCI-H460 NSCLC): 20.2 nM | TGI (NCI-H460 NSCLC): 45.4 nM | GI50 (NCI-H226 lung): 34.6 nM | TGI (NCI-H226 lung): 220 nM | GI50 (OVCAR-5 ovarian): 80 nM | TGI (OVCAR-5 ovarian): > 100000 nM | GI50 (IGROV1 ovarian): 61.2 nM | TGI (IGROV1 ovarian): 54400 nM | GI50 (SR leukemia): 12.3 nM | TGI (SR leukemia): 25.6 nM | GI50 (NCI-H522 lung): 17.6 nM | TGI (NCI-H522 lung): 44.9 nM | GI50 (UO-31 renal): 66.5 nM | TGI (UO-31 renal): > 100000 nM | GI50 (HCT-116 colon): 31.8 nM | TGI (HCT-116 colon): 709 nM | GI50 (PC-3 prostate): 34.5 nM | TGI (PC-3 prostate): > 100000 nM | GI50 (HL-60(TB) leukemia): 16.1 nM | TGI (HL-60(TB) leukemia): 29.7 nM | GI50 (NCI-H23 lung): 22.8 nM | TGI (NCI-H23 lung): 60.3 nM | GI50 (TK-10 renal): 39.9 nM | TGI (TK-10 renal): 45900 nM | GI50 (NCI/ADR-RES ovarian): 17.7 nM | TGI (NCI/ADR-RES ovarian): 39.3 nM | GI50 (SF-539 CNS): 21.4 nM | TGI (SF-539 CNS): 53.7 nM | GI50 (MDA-MB-468 breast): 15.6 nM | TGI (MDA-MB-468 breast): 30.6 nM | GI50 (MOLT-4 leukemia): 15.3 nM | TGI (MOLT-4 leukemia): 29.8 nM | GI50 (SK-MEL-5 melanoma): 20.3 nM | TGI (SK-MEL-5 melanoma): 46.6 nM | GI50 (SNB-19 CNS): 41.3 nM | TGI (SNB-19 CNS): 3110 nM | GI50 (OVCAR-8 ovarian): 31.4 nM | TGI (OVCAR-8 ovarian): 134 nM | GI50 (HOP-62 NSCLC): 29.8 nM | TGI (HOP-62 NSCLC): 3420 nM | GI50 (SN12C renal): 38.9 nM | TGI (SN12C renal): 16600 nM | GI50 (CCRF-CEM leukemia): 18.4 nM | TGI (CCRF-CEM leukemia): 33.3 nM | GI50 (RPMI-8226 leukemia): 14.2 nM | TGI (RPMI-8226 leukemia): 27.7 nM | GI50 (KM12 colon): 30 nM | TGI (KM12 colon): 2010 nM | GI50 (ACHN renal): 80.1 nM | TGI (ACHN renal): 45100 nM | GI50 (MDA-MB-231 breast): 53.2 nM | TGI (MDA-MB-231 breast): > 100000 nM | GI50 (MCF7 breast): 49.9 nM | TGI (MCF7 breast): 7190 nM | GI50 (MDA-MB-435 melanoma): 15.1 nM | TGI (MDA-MB-435 melanoma): 30.7 nM | GI50 (EKVX NSCLC): 42.4 nM | TGI (EKVX NSCLC): 99400 nM | GI50 (U251 glioblastoma): 32 nM | TGI (U251 glioblastoma): 150 nM | GI50 (SF-268 CNS): 35.2 nM | TGI (SF-268 CNS): 513 nM | GI50 (UACC-257 melanoma): 45.7 nM | TGI (UACC-257 melanoma): 43700 nM | GI50 ([…]-0 renal): 32.3 nM | TGI (786-0 renal): 220 nM | GI50 (CAKI-1 renal): 40.1 nM | TGI (CAKI-1 renal): > 100000 nM | GI50 (BT-549 breast): 28.3 nM | TGI (BT-549 breast): 179 nM | GI50 (HCC-2998 colon): 20.4 nM | TGI (HCC-2998 colon): 133 nM | GI50 (RXF 393 renal): 17.5 nM | TGI (RXF 393 renal): 39.7 nM | GI50 (A498 renal): 31.8 nM | TGI (A498 renal): 625 nM | GI50 (M14 melanoma): 18.5 nM | TGI (M14 melanoma): 42.2 nM | GI50 (HS 578T breast): 18.6 nM | TGI (HS 578T breast): 38.9 nM | GI50 (LOX IMVI melanoma): 49.8 nM | TGI (LOX IMVI melanoma): 298 nM | GI50 (OVCAR-4 ovarian): 41.1 nM | TGI (OVCAR-4 ovarian): 39700 nM | GI50 (SK-OV-3 ovarian): 32.7 nM | TGI (SK-OV-3 ovarian): 2670 nM | GI50 (HOP-92 NSCLC): 38.1 nM | TGI (HOP-92 NSCLC): 2950 nM | GI50 (K-562 leukemia): 19.8 nM | TGI (K-562 leukemia): 54.1 nM | GI50 (OVCAR-3 ovarian): 17.4 nM | TGI (OVCAR-3 ovarian): 41.7 nM | GI50 (HCT-15 colon): 32.1 nM | TGI (HCT-15 colon): 163 nM | GI50 (SW-620 colon): 30.7 nM | TGI (SW-620 colon): > 100000 nM | GI50 (SK-MEL-28 melanoma): 38.6 nM | TGI (SK-MEL-28 melanoma): > 100000 nM | GI50 (HT29 colon): 28.3 nM | TGI (HT29 colon): > 100000 nM | GI50 (A549 NSCLC): 50.2 nM | TGI (A549 NSCLC): > 100000 nM
